Data on three compounds can be found in US20240018115A1, “ALLOSTERIC CHROMENONE INHIBITORS OF PHOSPHOINOSITIDE 3-KINASE (PI3K) FOR THE TREATMENT OF DISEASE” (Petra Pharma Corporation, priority 2022, published 2024).

For orientation: IC50 means the point on the concentration scale where inhibition reaches its midpoint.

The target of the test is T1, PI3K-Alpha kinase H1047R mutant (Homo sapiens, UniProt P42336, H1047R).
T1 construct: host or cells: MDA-MB-453
The test is described as follows: PI3K-Alpha Kinase (PIK3CA) Activity, H1047R Mutant In Vitro Cell Based Assay (MDA-MB-453 cells, AlphaLisa SureFire Ultra). Conditions: 0% FBS, 3 hours treatment, relative IC50. As to the method:
PI3K-Alpha Kinase (PIK3CA) Activity, H1047R Mutant In Vitro Cell Based Assay and Determining IC50 Values for Inhibitors
The MDA-MB-453 (ATCC-HTB-131) cell line was obtained from the American Type Culture Collection (Manassas, VA). Cells were maintained in Dulbecco's Modified Eagle Media (DMEM, Gibco 11965-092) supplemented with 10% Fetal Bovine Serum, heat inactivated (FBS HI, Gibco 10082-147), 1× non-essential amino acids (NEAA, Gibco 11140-050), and 1 mM sodium pyruvate (Gibco 11360-070). Cultures were maintained in a humidified incubator at 37° C. under 5% CO2/95% air.
For compound testing in 0% FBS, MDA-MB-453 cells were seeded at a density of 1.5×10^4 cells per well in white 384-well plates in 20 μl of Minimum Essential Media (MEM) assay media with 1×NEAA, 1 mM sodium pyruvate, and 1 μg/mL human insulin (Sigma I9278). Compounds dissolved in 10 mM stock solutions in DMSO were serially diluted 1:3 in DMSO to generate a 10-point dilution series and plated using an acoustic liquid handler system (Echo 550 Series Liquid Handler, Labcyte). A 5× intermediate compound dilution plate in MEM with 1×NEAA and 1 mM sodium pyruvate (150 μM starting compound concentration in 1.5% DMSO) was then prepared. Five μl of the intermediate serially diluted compounds were added to the cell plate to final concentrations ranging from […] in 0.3% DMSO. 0.3% DMSO alone was used to establish the maximum (MAX) signal and GDC-0032 at a final concentration of 1 μM was used as a reference compound for the minimum (MIN) signal. After 3 hours treatment, the medium was removed, and the cells lysed in 10 μL of 1× SureFire Lysis buffer with shaking for 10 minutes at room temperature. The Acceptor Mix (Reaction Buffer 1+Reaction Buffer 2+Activation Buffer+SureFire Ultra Acceptor Beads) was prepared by diluting Activation buffer 25-fold in combined Reaction Buffer 1 and Reaction Buffer 2. The Acceptor beads were diluted 50-fold in the combined Reaction Buffers. Five μL of Acceptor Mix was added to each well, the plate was sealed and covered with foil and incubated for 1 hour at room temperature. The Donor Mix (dilution buffer+SureFire Ultra Donor Beads) was prepared by diluting Donor Beads 50-fold in dilution buffer. Five μL of the Donor Mix was added to each well and the plate sealed and covered with foil and incubated for 1 hour at room temperature in the dark. The plates were read on a Neo2 plate reader instrument from Biotek using standard AlphaLisa settings. Compounds were tested in duplicate and the average % inhibition at each compound concentration was used to generate a single dose response curve. The data were processed using the Genedata-Screener tool. Relative IC50 values were determined using luminescence units by calculating percent inhibition with respect to the in-plate “MIN” (GDC-0032 reference control) and “MAX” (DMSO) controls. The data was analyzed using a 4-parameter nonlinear logistic equation (four-parameter logistic concentration-response curve):
Y=bottom+[(top−bottom)/1+(X/IC50)slope]
where Y=% inhibition, X=concentration of inhibitor, bottom=minimum value of y attained by curve-fit, top=maximum value of y attained by curve-fit and slope=steepness of curve at the IC50.
% Inhibition=[(signal at X−median Min)/(median Max−median Min)]×100
IC50: concentration of compound that reduces a given response (ligand binding, enzyme response) by 50%. Relative IC50: concentration giving half the compound's maximum response.
In general terms: Alpha assays give light when donor and acceptor beads are brought close together.

T1 sequence (P42336 whole entry H1047R): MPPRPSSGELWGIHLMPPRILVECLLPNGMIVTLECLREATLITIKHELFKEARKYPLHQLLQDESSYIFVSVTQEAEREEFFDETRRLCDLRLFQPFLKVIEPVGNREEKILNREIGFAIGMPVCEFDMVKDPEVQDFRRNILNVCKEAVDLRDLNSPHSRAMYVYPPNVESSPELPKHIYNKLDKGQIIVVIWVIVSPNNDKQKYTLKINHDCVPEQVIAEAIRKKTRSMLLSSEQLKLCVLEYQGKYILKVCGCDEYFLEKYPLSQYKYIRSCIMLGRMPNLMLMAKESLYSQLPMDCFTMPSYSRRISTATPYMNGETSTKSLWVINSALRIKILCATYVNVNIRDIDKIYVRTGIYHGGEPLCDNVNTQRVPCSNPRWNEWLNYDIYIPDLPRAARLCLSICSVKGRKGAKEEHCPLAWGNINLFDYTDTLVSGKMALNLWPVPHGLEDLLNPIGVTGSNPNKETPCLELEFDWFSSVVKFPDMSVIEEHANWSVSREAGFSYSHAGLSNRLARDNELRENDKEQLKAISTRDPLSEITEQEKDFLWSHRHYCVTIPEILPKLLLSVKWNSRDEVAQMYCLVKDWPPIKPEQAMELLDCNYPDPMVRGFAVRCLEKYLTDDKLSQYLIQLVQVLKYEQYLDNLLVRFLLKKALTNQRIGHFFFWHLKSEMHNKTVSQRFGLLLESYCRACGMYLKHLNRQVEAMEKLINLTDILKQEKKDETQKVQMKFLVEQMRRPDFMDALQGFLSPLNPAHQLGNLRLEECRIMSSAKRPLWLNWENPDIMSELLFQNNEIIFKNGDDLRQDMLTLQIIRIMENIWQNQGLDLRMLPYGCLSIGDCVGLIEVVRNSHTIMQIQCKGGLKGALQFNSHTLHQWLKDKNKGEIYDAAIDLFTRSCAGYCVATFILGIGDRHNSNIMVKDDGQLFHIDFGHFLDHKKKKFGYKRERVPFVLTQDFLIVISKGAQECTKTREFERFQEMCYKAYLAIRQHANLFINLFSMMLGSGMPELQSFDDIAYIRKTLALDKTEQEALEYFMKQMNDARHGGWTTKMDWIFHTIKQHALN
T1 sequence (P27986 whole entry partner): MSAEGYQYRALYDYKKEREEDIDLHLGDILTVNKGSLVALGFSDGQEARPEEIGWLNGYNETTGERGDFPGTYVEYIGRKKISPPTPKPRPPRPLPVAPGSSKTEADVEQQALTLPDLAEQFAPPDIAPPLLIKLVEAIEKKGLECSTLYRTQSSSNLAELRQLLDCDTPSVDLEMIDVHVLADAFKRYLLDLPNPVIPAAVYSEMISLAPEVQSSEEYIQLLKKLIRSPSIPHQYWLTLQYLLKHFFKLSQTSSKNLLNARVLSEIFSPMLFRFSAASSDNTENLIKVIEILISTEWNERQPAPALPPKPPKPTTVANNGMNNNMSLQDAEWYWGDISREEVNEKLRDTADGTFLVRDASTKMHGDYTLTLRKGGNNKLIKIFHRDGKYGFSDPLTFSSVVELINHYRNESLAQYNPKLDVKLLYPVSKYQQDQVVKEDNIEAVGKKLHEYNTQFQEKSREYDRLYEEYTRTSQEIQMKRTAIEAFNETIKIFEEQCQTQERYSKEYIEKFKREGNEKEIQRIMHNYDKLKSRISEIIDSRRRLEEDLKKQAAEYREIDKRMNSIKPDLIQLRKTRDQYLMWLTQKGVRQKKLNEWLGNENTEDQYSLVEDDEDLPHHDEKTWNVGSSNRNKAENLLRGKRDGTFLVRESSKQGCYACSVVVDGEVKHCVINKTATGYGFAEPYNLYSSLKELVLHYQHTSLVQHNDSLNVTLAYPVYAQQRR

For `Cc1cc([C@@H](C)Nc2ccc(Cl)nc2)c2oc(-c3ccccc3)c(C)c(=O)c2c1` [Example 14B, 8-[(1R)-1-[(6-Chloro-3-pyridyl)amino]ethyl]-3,6-dimethyl-2-phenyl-chromen-4-one], the IC50 was < 500 nM.

For the compound `Cc1cc([C@@H](C)Nc2cccnc2C(=O)NCC(C)(C)O)c2oc(-c3ccccc3)c(C)c(=O)c2c1` [Example 177A, 3-[[(1R)-1-(3,6-Dimethyl-4-oxo-2-phenyl-chromen-8-yl)ethyl]amino]-N-(2-hydroxy-2-methyl-propyl)pyridine-2-carboxamide], the IC50 is < 500 nM.

For the compound `Cc1cc([C@@H](C)Nc2cccnc2N(C)C)c2oc(-c3cccnc3)c(C)c(=O)c2c1` [Example 168C, 8-[(1R)-1-[[2-(Dimethylamino)-3-pyridyl]amino]ethyl]-3,6-dimethyl-2-(3-pyridyl)chromen-4-one], the IC50 was < 500 nM.
